Patent US11104690B2, “Indazole derivatives useful as inhibitors of diacylglyceride O-acyltransferase 2” (Merck Sharp & Dohme Corp., priority 2016, dated 2021)

Biological target: Human DGAT2 (Homo sapiens (Human), UniProt Q96PD7)
Assay: DGAT2 Enzymatic Activity Assay (triolein formation, LC/MS/MS)
Format: biochemical
Conditions: hDGAT2 Sf-9 membrane prep; 25 μM diolein, 10 μM oleoyl-CoA; room temperature
Method: Sf-9 insect cells were maintained in Grace's insect cell culture medium with 10% heated-inactivated fetal bovine serum, 1% Pluronic F-68 and 0.14 μg/m Kanamycine sulfate in Erlenmeyer flasks at 28° C. in a shaker incubator. After infection with untagged hDGAT2 baculovirus at multiplicity of infection (MOI) 0.1 for 48 hours, cells were harvested. Cell pellets were suspended in buffer containing 10 mM Tris-HC (pH 7.5), 1 mM EDTA (pH 8.0), 250 mM sucrose and Complete Protease Inhibitor Cocktail (Roche Diagnostics Corp., Indianapolis, Ill.), and sonicated on ice. Membrane fractions were isolated by ultracentrifugation (100,000×g pellet), resuspended in the same buffer, and frozen (−80° C.) for later use. The protein concentration was determined with the BCA Protein Assay kit (Pierce Biotechnology Inc., Rockford, Ill.). Expression of protein levels was analyzed by immunoblotting with goat polyclonal DGAT2 antibody C-15 and donkey anti-goat IgG HRP (Santa Cruz Biotechnology, Inc., Santa Cruz, Calif.) followed by detection with ECL reagent (GE Healthcare, Piscataway, N.J.).
LC/MS/MS analyses were performed using Thermal Fisher's LX4-TSQ Vantage system. This system consists of an Agilent binary high-performance liquid chromatography (HPLC) pumps and a TSQ Vantage triple quadrupole MS/MS instrument. For each sample, 2 μL samples from the top organic layer of in-plate liquid-liquid extraction were injected onto a Thermo Betabasic C4 column (2.1 mm×20 mm, 5 μm particle size). The samples were then eluted using the following conditions; mobile phase: MeOH/water with 0.1% ammonium format=92/8 (v/v), flow rate: 1 mL/min, temperature: 25 C. Data was acquired in positive mode using a heated electrospray ionization (HESI) interface. The operational parameters for the TSQ Vantage MS/MS instrument were a spray voltage of 3000 V, capillary temperature of 280° C., vaporizer temperature 400° C., shealth gas 60 arbitrary unit, Aux gas 40 arbitrary units, S-lens 113 and collision gas 0.16 Pascals. […] (SRM) chromatograms of triolein (Q1: 902.9>Q3:602.3) and internal standard ([…]) were collected for 40 sec. The peak area was integrated by Xcalibur Quan software. The ratio between the triolein generated in the reaction and spiked in internal standard was used to generate percentage inhibition and IC50 values. Compound percentage inhibition was calculated by the following formula: Inhibition %=1−[(compound response−low control)/(high control−low control)]×100%. Potent compounds were titrated and IC50 were calculated by 4 parameter sigmoidal curve fitting formula.
DGAT2 activity was determined by measuring the amount of enzymatic product triolein (1,2,3-Tri(cis-9-octadecenoyl)glycerol) using the membrane prep mentioned above. The assay was carried out in deep well 384 plates in a final volume of 40 μL at room temperature. The assay mixture contained the following: assay buffer (100 mM Tris.Cl, pH 7.0, 20 mM MgCl2, 5% ethanol), 25 μM of diolein, 10 μM of oleoyl-CoA and 10 ng/μL of DGAT2 membrane.

Chain of Human DGAT2 (Q96PD7 whole entry): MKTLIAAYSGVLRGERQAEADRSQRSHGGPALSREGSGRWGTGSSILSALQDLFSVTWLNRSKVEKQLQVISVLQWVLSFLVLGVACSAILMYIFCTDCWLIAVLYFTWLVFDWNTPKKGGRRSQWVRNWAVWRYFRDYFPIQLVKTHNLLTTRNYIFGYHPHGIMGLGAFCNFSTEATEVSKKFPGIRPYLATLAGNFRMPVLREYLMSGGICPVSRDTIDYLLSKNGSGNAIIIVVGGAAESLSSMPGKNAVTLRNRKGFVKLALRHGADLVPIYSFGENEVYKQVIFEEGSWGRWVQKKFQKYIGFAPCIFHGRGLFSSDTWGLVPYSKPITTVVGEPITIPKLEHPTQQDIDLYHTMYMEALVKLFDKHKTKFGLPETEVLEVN

SMILES | IC50 [nM]
O=C(NC1CCS(=O)(=O)C1)c1ccc2c(-c3ccc[n+]([O-])c3)nn(-c3ccc(F)cc3)c2c1 (single isomer, unassigned) [Example 166-A, 3-(6-((1,1-dioxidotetrahydrothiophen-3-yl)carbamoyl)-1-(4-fluorophenyl)-1H-indazol-3-yl)pyridine 1-oxide] | 843
O=C(N[C@@H]1CCCC[C@H]1O)c1ccc2c(-c3ccccc3Cl)nn(-c3ccc(F)cc3)c2c1 (racemic) [Example 67] | 40
COC(=O)C1(NC(=O)c2ccc3c(-c4ccccc4Cl)nn(-c4ccc(F)cc4)c3c2)CCSC1 (racemic) [Example 59, methyl 3-({[3-(2-chlorophenyl)-1-(4-fluorophenyl)-1H-indazol-6-yl]carbonyl}amino)tetra-hydrothiophene-3-carboxylate] | 461
O=C(N[C@@H]1CCCC[C@@H]1O)c1ccc2c(-c3ccccc3Cl)nn(-c3ccc(F)cc3)c2c1 (racemic) [Example 66] | 68
Cn1cc(C(C)(C)NC(=O)c2ccc3c(-c4ccccc4Cl)nn(-c4ccc(F)cc4)c3c2)cn1 [Example 16, 3-(2-chlorophenyl)-1-(4-fluorophenyl)-N-[1-methyl-1-(1-methyl-1H-pyrazol-4-yl)ethyl]-1H-indazole-6-carboxamide] | 120
N#Cc1cccc(-c2nn(-c3ccc(F)cn3)c3cc(C(=O)N[C@H]4CCS(=O)(=O)C4)ccc23)c1 [177-B] | 86
CC1(NC(=O)c2ccc3c(-c4cccc(C#N)c4)nn(-c4ccc(F)cn4)c3c2)CCS(=O)(=O)C1 (single isomer, unassigned) [Example 178-B, 3-(3-cyanophenyl)-1-(5-fluoropyridin-2-yl)-N-(3-methyl-1,1-dioxidotetrahydrothiophen-3-yl)-1H-indazole-6-carboxamide] | 32
CC1(NC(=O)c2ccc3c(-c4cccc(OCC(F)(F)F)c4)nn(-c4ccc(F)cc4)c3c2)CCS(=O)(=O)C1 (single isomer, unassigned) [Example 147-A, 1-(4-fluorophenyl)-N-(3-methyl-1,1-dioxidotetrahydrothiophen-3-yl)-3-[3-(2,2,2-trifluoroethoxy)phenyl]-1H-indazole-6-carboxamide] | 5.7
COc1cc(-c2nn(-c3ccc(F)cc3)c3cc(C(=O)NC4(C)CCS(=O)(=O)C4)ccc23)ccn1 (single isomer, unassigned) [Example 140-A, 1-(4-fluorophenyl)-3-(2-methoxypyridin-4-yl)-N-(3-methyl-1,1-dioxidotetrahydrothiophen-3-yl)-1H-indazole-6-carboxamide] | 455
C[C@@H](CO)NC(=O)c1ccc2c(-c3ccccc3Cl)nn(-c3ccc(F)cc3)c2c1 [Example 68, 3-(2-chlorophenyl)-1-(4-fluorophenyl)-N-[(1S)-2-hydroxy-1-methylethyl]-1H-indazole-6-carboxamide] | 310
O=C(NCCS(=O)(=O)Nc1cccnc1)c1ccc2c(-c3ccccc3Cl)nn(-c3ccc(F)cc3)c2c1 [Example 60, 3-(2-chlorophenyl)-1-(4-fluorophenyl)-N-[2-(pyridin-3-ylsulfamoyl)ethyl]-1H-indazole-6-carboxamide] | 16
O=C(N[C@H](CO)Cc1ccccc1)c1ccc2c(-c3ccccc3Cl)nn(-c3ccc(F)cc3)c2c1 [Example 110, N-[(1S)-1-benzyl-2-hydroxyethyl]-3-(2-chlorophenyl)-1-(4-fluorophenyl)-1H-indazole-6-carboxamide] | 134
CN1CC(NC(=O)c2ccc3c(-c4ccccc4Cl)nn(-c4ccc(F)cc4)c3c2)CC1=O (racemic) [Example 22, 3-(2-chlorophenyl)-1-(4-fluorophenyl)-N-(1-methyl-5-oxopyrrolidin-3-yl)-1H-indazole-6-carboxamide] | 102
Cn1ccc(-n2nc(-c3ccccc3Cl)c3ccc(C(=O)NC4(C)CCS(=O)(=O)C4)cc32)n1 (racemic) [Example 184, 3-(2-chlorophenyl)-N-(3-methyl-1,1-dioxidotetrahydrothiophen-3-yl)-1-(1-methyl-1H-pyrazol-3-yl)-1H-indazole-6-carboxamide] | 201
O=C(NC1CCOC1)c1ccc2c(-c3ccccc3Cl)nn(-c3ccc(F)cc3)c2c1 (racemic) [Example 77, 3-(2-chlorophenyl)-1-(4-fluorophenyl)-N-(tetrahydrofuran-3-yl)-1H-indazole-6-carboxamide] | 59
CC1(NC(=O)c2ccc3c(-c4ccccc4Cl)nn(-c4cccnc4)c3c2)CCS(=O)(=O)C1 (racemic) [Example 189, 3-(2-chlorophenyl)-N-(3-methyl-1,1-dioxidotetrahydrothiophen-3-yl)-1-pyridin-3-yl-1H-indazole-6-carboxamide] | 409
CC(C)(C)OC(=O)N1CCS(=O)(=O)CC(NC(=O)c2ccc3c(-c4ccccc4Cl)nn(-c4ccc(F)cc4)c3c2)C1 (racemic) [Example 91, tert-butyl 6-({[3-(2-chlorophenyl)-1-(4-fluorophenyl)-1H-indazol-6-yl]carbonyl}amino)-1,4-thiazepane-4-carboxylate 1,1-dioxide] | 572
CC1(NC(=O)c2ccc3c(-c4cccc(C5CC5)c4)nn(-c4ccc(F)cn4)c3c2)CCS(=O)(=O)C1 (single isomer, unassigned) [Example 125-B, 3-(3-cyclopropylphenyl)-1-(5-fluoropyridin-2-yl)-N-(3-methyl-1,1-dioxidotetrahydrothiophen-3-yl)-1H-indazole-6-carboxamide] | 3
O=C(NC1CCS(=O)(=O)C1)c1ccc2c(-c3ccccc3Cl)nn(-c3ccc(F)cc3)c2c1 (single isomer, unassigned) [Example 2-A] | 12
O=C(N[C@@H]1CS(=O)(=O)C[C@H]1O)c1ccc2c(-c3ccccc3Cl)nn(-c3ccc(F)cc3)c2c1 [Example 9, 3-(2-chlorophenyl)-1-(4-fluorophenyl)-N-[(3S,4S)-4-hydroxy-1,1-dioxidotetrahydrothiophen-3-yl]-1H-indazole-6-carboxamide] | 531
Cc1ccc(-n2nc(-c3ccccc3Cl)c3ccc(C(=O)NC4(C)CCS(=O)(=O)C4)cc32)nc1 (racemic) [Example 185, 3-(2-chlroophenyl)-N-(3-methyl-1,1-dioxidotetrahydrothiophen-3-yl)-1-(5-methylpyridin-2-yl)-1H-indazole-6-carboxamide] | 9.5
CC1(NC(=O)c2ccc3c(-c4cccc(-n5cccn5)c4)nn(-c4ccc(F)cc4)c3c2)CCS(=O)(=O)C1 (racemic) [Example 165, 1-(4-fluorophenyl)-N-(3-methyl-1,1-dioxidotetrahydrothiophen-3-yl)-3-[3-(1H-pyrazol-1-yl)phenyl]-1H-indazole-6-carboxamide] | 7
COC[C@H](C)NC(=O)c1ccc2c(-c3ccccc3Cl)nn(-c3ccc(F)cc3)c2c1 [Example 12, 3-(2-chlorophenyl)-1-(4-fluorophenyl)-N-[(1S)-2-methoxy-1-methylethyl]-1H-indazole-6-carboxamide] | 85
CC1(NC(=O)c2ccc3c(-c4cccc(Cl)c4)nn(-c4ccc(F)cc4)c3c2)CCS(=O)(=O)C1 (single isomer, unassigned) [Example 158-A, 3-(3-chlorophenyl)-1-(4-fluorophenyl)-N-(3-methyl-1,1-dioxidotetrahydrothiophen-3-yl)-1H-indazole-6-carboxamide] | 31
COc1cccc(-c2nn(-c3ccc(F)cc3)c3cc(C(=O)NC4(C)CCS(=O)(=O)C4)ccc23)c1 (single isomer, unassigned) [Example 144-A, 1-(4-fluorophenyl)-3-(3-methoxyphenyl)-N-(3-methyl-1,1-dioxidotetrahydrothiophen-3-yl)-1H-indazole-6-carboxamide] | 5.8
CCC(CO)NC(=O)c1ccc2c(-c3ccccc3Cl)nn(-c3ccc(F)cc3)c2c1 (racemic) [Example 65, 3-(2-chlorophenyl)-1-(4-fluorophenyl)-N-[1-(hydroxyinethyl)propyl]-1H-indazole-6-carboxamide] | 170
O=C(NCc1ccccn1)c1ccc2c(-c3ccccc3Cl)nn(-c3ccc(F)cc3)c2c1 [Example 32, 3-(2-chlorophenyl)-1-(4-fluorophenyl)-N-(pyridin-2-ylmethyl)-1H-indazole-6-carboxamide] | 495
